Source: article PMC4456360, “A Recombinant Fungal Lectin for Labeling Truncated Glycans on Human Cancer Cells” (PLoS ONE, 2015)
Where “and” joins values, the source holds several entries; their conditions need not be identical. Equal values may be shown once. Marks after values point to notes of the source that are not given here.

Tests used:
rPVL [1] = biological target: T1, rPVL (Lacrymaria velutina (Psathyrella velutina), UniProt Q309D1); assay: Surface plasmon resonance, oligosaccharides injected over rPVL-coated CM5 chip; type: binding; details: 25°C, rPVL immobilized on chip; for Kd: read-out: SPR Kd
T1 sequence (Q309D1 1-395): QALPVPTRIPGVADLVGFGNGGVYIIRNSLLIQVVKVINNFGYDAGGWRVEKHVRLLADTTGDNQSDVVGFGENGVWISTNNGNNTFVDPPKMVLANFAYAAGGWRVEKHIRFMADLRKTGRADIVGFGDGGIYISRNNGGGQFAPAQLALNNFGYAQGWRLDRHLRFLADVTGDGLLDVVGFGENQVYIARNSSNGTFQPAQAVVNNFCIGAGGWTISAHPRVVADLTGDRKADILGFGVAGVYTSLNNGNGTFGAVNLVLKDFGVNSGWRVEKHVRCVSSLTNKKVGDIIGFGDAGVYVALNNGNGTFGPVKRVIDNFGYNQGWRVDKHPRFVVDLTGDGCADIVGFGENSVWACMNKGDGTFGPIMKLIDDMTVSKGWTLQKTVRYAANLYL
Protocol: All SPR experiments were performed on a Biacore X100 instrument (GE Healthcare) at 25°C in HBS (10 mM Hepes/NaOH, pH 7.5, 150 mM NaCl, 0.05% Tween 20) supplemented with 100 μM of CaCl2 at a flow rate of 30 μl min^-1. Binding was measured as resonance units over time after blank subtraction, and data were then evaluated by using the Biacore X100 evaluation software, version 2.0. Dissociation constants were determined by plotting response at equilibrium (Req, 10 s before the end of injection) against analyte concentration. For protein coated chip, 3500 resonance units of rPVL (100 μg ml^-1, 10 mM acetate buffer pH 6.2) have been immobilized on flow channel 2 of a research grade CM5 chip using standard amine coupling procedures. Flow channel 1 has been activated/deactivated. Experiments consist of injection (association 360 s, dissociation 400 s) of various concentrations of oligosaccharides (2 fold cascade dilutions, from 0 to 10 μM) on both channels.

rPVL [2] = biological target: T1, rPVL; assay: Titration microcalorimetry (ITC), rPVL in solution; type: binding; details: for ITC -∆H / ITC T∆S / Kd / ITC n (number of binding sites per monomer): 25°C; for Kd: rPVL in solution; for ITC n: stoichiometry value fixed during fitting procedure
Protocol: Recombinant lyophilized rPVL was dissolved in buffer (20 mM Tris/HCl, pH 7.5, NaCl 150 mM, 100 μM CaCl2) and degassed. The protein concentration was checked by measuring A280 by using a theoretical molar extinction coefficient of 65,890 M^-1 cm^-1. Carbohydrate ligands were dissolved in the same buffer, degassed, and loaded in the injection syringe. ITC was performed with a ITC200 microcalorimeter (GE Healthcare). The rPVL solution was placed in a 200 μl sample cell at 25°C. Titration was performed with 20 injections of 2 μl carbohydrate ligands every 120 s. The experimental data were fitted to a theoretical titration curve using Origin software supplied by GE Healthcare, with ΔH (enthalpy change), Ka (association constant) and n (number of binding sites per monomer) as adjustable parameters. Free energy change (ΔG) and entropy contributions (TΔS) were derived from the equation ΔG = ΔH – TΔS = —RT ln Ka (with T as the absolute temperature and R = 8.314 J mol^-1 K^-1). Two independent titrations were performed for each tested ligand.

rPVL [3] = biological target: T1, rPVL; assay: Thermal shift analysis of rPVL with glycan ligands; type: binding
Protocol: Thermal shift assays were performed using a Mini Opticon, Real Time PCR machine (Bio-Rad Laboratories) with 0.5 mg ml^-1 of protein diluted in 100 mM NaCl, 20 mM Tris pH 7.5, 100 μM CaCl2, with or without oligosaccharide in a total reaction volume of 25 μl. SYPRO Orange (Molecular Probes, CA) was used as a fluorescent probe detected at 530 nm. The temperature was raised using 1°C/minute steps from 25°C to 100°C and fluorescence readings were taken at each interval. […] A minimum of two independent measurements were performed for each condition

native PVL = biological target: native PVL; design: method as in PMID 16497330; details: ITC, native PVL isolated from mushroom; cited from earlier work
rPVL [4] = biological target: T1, rPVL; assay: Glycan array (CFG Mammalian Printed Array version 5.1); type: binding; details: Alexa Fluor 488 labeled rPVL
Source text: Purified rPVL were labeled with Alexa Fluor 488 (Invitrogen) according to the manufacturer’s instructions and repurified on a D-Salt polyacrylamide desalting column (Pierce). Alexa-labeled rPVL was used for glycan array screening with the standard procedure of the Protein-Glycan Interaction Core (H) of the Consortium for Functional Glycomics.

Row | Compound | Kd (rPVL [1]) [µM] | ITC -∆H (rPVL [2]) [kJ/mol] | ITC T∆S (rPVL [2]) [kJ/mol] | Kd (rPVL [2]) | other results
1 | CC(=O)N[C@H]1[C@H](O[C@H]2[C@@H](O)[C@@H](CO)OC(O)[C@@H]2O)O[C@H](CO)[C@@H](O)[C@@H]1O (some centres unmarked) [GlcNAcβ1-3Gal] | 103 | 42.1 | -19.5 | 110 µM | Tm of rPVL in the presence of ligand (rPVL [3]): 60 °C
2 | CC(=O)N[C@@H]1[C@@H](O)[C@H](O)[C@@H](CO)O[C@H]1O [GlcNAc, N-acetylglucosamine] | 132 | 41.2 | -18.0 | 124 µM | ITC n (rPVL [2]): 5.0 ^b; Kd (native PVL): ~200 µM
3 | Galβ1-3GlcNAcβ1-3Galβ1-4Glc [Galβ1-3GlcNAcβ1-3Galβ1-4Glc (LNT)] | – | – | – | – | SPR Kd (rPVL [1]): No binding
4 | CC(=O)N[C@@H]1[C@@H](O)[C@H](O[C@@H]2O[C@H](CO)[C@@H](O[C@@H]3O[C@H](CO[C@H]4O[C@H](CO)[C@@H](O)[C@H](O)[C@@H]4O[C@@H]4O[C@H](CO)[C@@H](O)[C@H](O)[C@H]4NC(C)=O)[C@@H](O)[C@H](O[C@H]4O[C@H](CO)[C@@H](O)[C@H](O)[C@@H]4O[C@@H]4O[C@H](CO)[C@@H](O)[C@H](O)[C@H]4NC(C)=O)[C@@H]3O)[C@H](O)[C@H]2NC(C)=O)[C@@H](CO)O[C@H]1N=[N+]=[N-] [Biantennary N-glycan (2)] | 179 | 13.7 | 11.8 | 34 µM and 34.4 µM | ITC n (number of binding sites per monomer) (rPVL [2]): 1.9 ± 0.6; ITC n (number of binding sites per monomer) (rPVL [2]; listed as biantennary heptasaccharide): two
5 | O=C[C@H](O)[C@@H](O)[C@@H](O)[C@H](O)CO [galactose] | – | – | – | – | stabilization of rPVL by carbohydrate (in words) (rPVL [3]): non-binding
6 | CC(=O)N[C@H]1[C@H](O[C@H]2[C@H](O)[C@@H](NC(C)=O)[C@H](O[C@H]3[C@H](O)[C@@H](NC(C)=O)C(O)O[C@@H]3CO)O[C@@H]2CO)O[C@H](CO)[C@@H](O[C@@H]2O[C@H](CO)[C@@H](O[C@@H]3O[C@H](CO)[C@@H](O)[C@H](O)[C@H]3NC(C)=O)[C@H](O)[C@H]2NC(C)=O)[C@@H]1O (stereo partly drawn) [GlcNAc(β1-4GlcNAc)4, GlcNAcβ1-4GlcNAcβ1-4GlcNAcβ1-4GlcNAcβ1-4GlcNAc] | 358 | – | – | – | –
7 | CC(=O)N[C@H]1[C@H](O[C@H]2[C@@H](O)[C@@H](CO)OC(O)[C@@H]2NC(C)=O)O[C@H](CO)[C@H](O)[C@@H]1O (some centres unmarked) [GalNAcβ1-3GalNAc] | – | – | – | – | binding of rPVL on glycan array (in words) (rPVL [4]): minor intensity
8 | OC[C@H]1O[C@@](CO)(O[C@H]2O[C@H](CO)[C@@H](O)[C@H](O)[C@H]2O)[C@@H](O)[C@@H]1O [sucrose] | – | – | – | – | stabilization of rPVL by carbohydrate (in words) (rPVL [3]): non-binding
9 | CC(=O)N[C@H]1[C@H](O[C@H]2[C@H](O)[C@@H](NC(C)=O)C(O)O[C@@H]2CO)O[C@H](CO)[C@@H](O)[C@@H]1O (some centres unmarked) [GlcNAcβ1-4GlcNAc] | 205 | 36.9 | -14.6 | 122 µM | ITC n (rPVL [2]): 5.0 ^b; Tm of rPVL in the presence of ligand (rPVL [3]): 60 °C; binding of rPVL on glycan array (in words) (rPVL [4]): only weakly
10 | CC(=O)N[C@H]1[C@H](O[C@H]2[C@@H](O)[C@@H](CO)O[C@@H](O[C@H]3[C@H](O)[C@@H](O)C(O)O[C@@H]3CO)[C@@H]2O)O[C@H](CO)[C@@H](O)[C@@H]1O (some centres unmarked) [GlcNAcβ1-3Galβ1-4Glc (LNT2), GlcNAcβ1-3Galβ1-4Glc] | 71 | 41.7 | -19.1 | 108 µM | Kd (rPVL [1]; listed as lacto-N-triose): ~70 µM; ITC n (number of binding sites per monomer) (rPVL [2]): 5.0 ± 0.2
